{"source": "patent US20110224133A1", "about": "(University of Southern California, priority 2008, published 2011)", "key": {"mTor kinase activity": {"tested_on": "mTor kinase activity", "test": "Immunoblot of p70S6K and S6 phosphorylation in BCBL1 cells", "type": "cell-based, human", "settings": "12 hr, 2 μM rapamycin or 30 μM peptide", "description": "WCLs were used for immunoblotting with αp70S6K, αphospho-specific p70S6K, αphospho-specific S6, or αactin. […] WCLs were used for immunoblotting with αFlag or αGST.\nLevels of phosphorylation of p70S6K and ribosomal protein S6 in BCBL1 cells were evaluated by immunoblotting with α-p70S6K, αphospho-specific p70S6K, αphospho-specific S6, or αactin."}, "LC3-II [1]": {"tested_on": "LC3-II", "test": "Immunoblotting with αLC3 of peptide-treated BCBL1 cells", "settings": "30 μM each, 12 hr", "protocol": "For panel E, TREX-BCBL-Vector and TREX-BCBL-vFLIP cells were treated with the K-α and the K-α4 (30 μM each) peptide for 12 hr, followed by immunoblotting with αLC3 and αactin.\nThe K-α2 and K-α4 peptides contained KSHV vFLIP aa20-29 and aa128-139 regions, respectively, as retro-inverso versions to circumvent the proteolytic degradation (FIG. 10 and FIG. 11A). […] Peptide-treated TREX-BCBL-Vector and TREX-BCBL-vFLIP cells were subjected to immunoblotting with αLC3 and αactin."}, "Beclin1": {"tested_on": "Beclin1", "test": "Beclin1 siRNA knockdown in BCBL1 cells", "type": "cell-based, human", "text": "For panel B, BCBL1 cells were transfected with control siRNA or Beclin1 siRNA and treated with or without rapamycin for 5 days."}, "TREX-BCBL-Vector cells [2]": {"tested_on": "TREX-BCBL-Vector cells", "test": "Cell death (BC Z2 CS analyzer) in peptide-treated TREX-BCBL cells", "settings": "identical conditions, 30 or 50 μM peptide", "protocol": "Subsequently, autophagy was quantified as means (±SD) of the combined results from three independent experiments. 2 μM rapamycin treatment was included as a control. For panels B (right), TREX-BCBL-Vector and TREX-BCBL-vFLIP cells were treated with Doxycycline for 24 hr, followed by incubation with 0, 30, or 50 μM of TAT only, the K-α2, or the K-α4 peptide (top), or TAT only, the C-α2, or the C-α4 peptide (bottom) for an additional 12 hr and a BC Z2 CS analyzer used to determine cell death (as a percentage). […] For panel G, various human lymphoma cells were treated with 0, 30, or 50 μM of the K-α2 peptide (left) or the K-α4 peptide (right) for 12 hr and cell death (as a percentage) was determined using a BC Z2 CS Analyzer. For panel H, KSHV-infected BCBL1 cells were incubated with various combinations of rapamycin (25 nM), the K-α2 peptide (20 μM), and the K-α4 peptide (20 μM). A BC Z2 CS Analyzer was used to determine cell numbers (left) and cell death at 6 days (right).\nCells treated with 2 μM rapamycin treatment were included as controls. For panel C, KSHV-infected BCBL1 cells were treated with TAT only, K-α2, K-α2m, K-α4, or K-α4m (30 or 50 μM) for 24 hr. A BC Z2 CS Analyzer was used to determine cell death (as a percentage)."}, "TREX-BCBL-Vector cells [3]": {"tested_on": "TREX-BCBL-Vector cells", "test": "GFP-LC3 puncta autophagy assay in peptide-treated TREX-BCBL cells", "settings": "30 or 50 μM peptide, 12 hr, 2 μM rapamycin as comparison"}, "Atg3 [4]": {"molecular_target": "T1, Atg3 (Homo sapiens, UniProt Q9NT62)", "T1 construct": "expressed in transfected cells; host or cells: HEK293T", "T1 sequence (Q9NT62 whole entry)": "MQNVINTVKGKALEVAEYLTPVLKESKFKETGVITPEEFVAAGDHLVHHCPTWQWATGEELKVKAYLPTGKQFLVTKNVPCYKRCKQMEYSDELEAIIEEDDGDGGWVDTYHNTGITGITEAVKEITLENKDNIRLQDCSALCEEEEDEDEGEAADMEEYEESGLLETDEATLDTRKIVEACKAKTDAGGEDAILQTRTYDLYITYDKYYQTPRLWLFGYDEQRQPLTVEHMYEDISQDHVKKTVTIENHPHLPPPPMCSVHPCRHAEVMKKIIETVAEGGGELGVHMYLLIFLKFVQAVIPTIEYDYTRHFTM", "test": "Co-immunoprecipitation and GST pulldown with Atg3 in HEK293T cells", "type": "binding", "settings": "HEK293T cells, 48 hr post-transfection", "text": "(§1) For panel A, at 48 hr post-transfection with Flag-vFLIP and/or GFP-Atg3 (left) or Flag-vFLIP and/or GST-Atg3 (middle), HEK293T cells were used for immunoprecipitation with αFlag, αGFP, or GST pulldown, followed by immunoblotting with the indicated antibodies. For panel A (right), HEK293T cells transfected with FIag-vFLIP were used for immunoprecipitation with mouse IgG or αFlag, followed by immunoblotting with αAtg3. Panel B (top) depicts a schematic diagram of human Atg3. N,N-terminus; FR, flexible region; C, C-terminus. […] Panel C (top) depicts a schematic diagram of KSHV vFLIP. […] For panel F, NIH3T3-Vector and NIH3T3-vFLIP cells were treated with 2 nM rapamycin for 12 hr and used for IP with αAtg3, followed by immunoblotting with αLC3. In panels A-F, whole cell lysates (WCLs) were used for immunoblotting with the indicated antibodies to show expression.\n(§2) WCLs were used for immunoblotting with αFlag or αGST. […] WCLs were used for immunoblotting with αFlag or αGST.\n(§3) The ability of FLIP to bind to Atg3 was evaluated by co-immunoprecipitation assay. HEK293T cells were transfected with Flag-vFLIP and/or GFP-Atg3 or Flag-vFLIP and/or GST-Atg3, and at 48 hr post-transfection, cells were harvested and lysed in an NP40 buffer supplemented with complete protease inhibitor cocktail (Roche). After pre-clearing with protein A/G agarose beads for 1 hr at 4° C., whole-cell lysates were used for immunoprecipitation with αFlag, αGFP, or GST. Generally, 1-4 μg of the antibody was added to 1 ml of the cell lysate and incubated at 4° C. for 8 to 12 hr. The immunoprecipitates were then washed extensively with a lysis buffer and eluted by boiling them with an SDS loading buffer for 5 min. Following immunoprecipitation, samples were treated to immunoblot using αAtg3 (1:500) (Novus).\n(§4) The overall structure of yeast Atg3 has a unique hammer-like shape with the N-terminal and C-terminal regions discretely responsible for Atg7 and Atg8 (equivalent to mammalian LC3) binding, respectively. (Yamada et al. (2007) J. Biol. Chem. 282:8036-8043). Based on the structure of yeast Atg3, human Atg3 deletion mutants fused with a GST mammalian expression vector were constructed: GST-Atg31-93, GST-Atg3193-268, GST-Atg3268-315, and GST-Atg3193-315."}, "BCBL1 cells": {"tested_on": "BCBL1 cells", "settings": "50 μM zVAD", "protocol": "For panels B-C, TREX-BCBL-Vector and TREX-BCBL-vFLIP cells were mock-treated or treated with 50 μM zVAD (B) or 50 nM rapamycin (C) for indicated amounts of time (days). A BC Z2 CS Analyzer was used to determine the cell numbers (left) and cell death levels (as a percentage) at day 6 (right).\nTrypan blue staining and a Beckman Coulter Z2 Particle Count and Size analyzer were used to determine cell death (as a percentage) at day 5."}, "[5]": {"tested_on": "KSHV-infected BCBL1 cells", "test": "Rapamycin-induced growth suppression and death of BCBL1 cells (cell counts, scanning EM)", "type": "cell-based, human", "settings": "6 days, over 100 dead cells examined", "description": "The effect of vFLIP on autophagy was tested in a KSHV-infected BCBL1 cell line."}, "[6]": {"molecular_target": "T2, GST-Atg3 193-315 (C-terminal region) (human, UniProt Q9NT62 193-314)", "T2 construct": "range 193-315; also called GST-Atg3 C-terminal region (Ct); not shown: N-terminal GST tag", "T2 sequence (Q9NT62 193-314 limits assumed)": "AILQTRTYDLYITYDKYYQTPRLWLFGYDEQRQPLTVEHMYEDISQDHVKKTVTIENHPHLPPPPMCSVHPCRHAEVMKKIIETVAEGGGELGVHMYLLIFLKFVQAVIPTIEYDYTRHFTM", "test": "GST pulldown with GST-Atg3, Nt and Ct, immunoblot αFlag"}, "[7]": {"molecular_target": "T3, GST-Atg3 (human Atg3, full length) (human, UniProt Q9NT62 1-314)", "T3 construct": "also called GST-tagged hATG3; full-length Atg3; not shown: N-terminal GST tag", "T3 sequence (Q9NT62 whole entry)": "as the sequence (Q9NT62 whole entry) above", "test": "GST pulldown from HEK293T cells, immunoblot αFlag"}, "Atg3 [8]": {"tested_on": "Atg3", "test": "Co-immunoprecipitation and GST pulldown with Atg3 in HEK293T cells", "type": "binding, human", "settings": "GST-Atg3 deletion mutants, GST pulldown", "text": "as §1, §2, §3, §4"}, "LC3-II [9]": {"tested_on": "LC3-II", "test": "Anti-LC3 immunoblotting of starved NIH3T3 cells expressing FLIP", "type": "cell-based, murine", "settings": "starvation, Hank's solution 4 hr", "description": "The arrows indicate autophagosomes.\nDuring autophagy, an LC3 precursor (LC3-I) undergoes cleavage and lipidation to yield its processed form (LC3-II) (Mizushima et al. (2008) Nature 451:1069-1075). Immunoblotting was performed with an antibody against LC3 to further measure autophagic activity. […] Polypeptides were resolved by SDS-polyacrylamide gel electrophoresis (PAGE) and transferred to a PVDF membrane (Bio-Rad). […] The proteins were visualized by a chemiluminescence reagent (Pierce) and detected by a Fuji Phosphor Imager. […] Finally, the ability of FLIP to block autophagy in multiple cell types was evaluated."}, "NIH3T3 cells": {"tested_on": "NIH3T3 cells", "test": "GFP-LC3 autophagy assay in NIH3T3 cells expressing FLIP", "type": "cell-based, murine", "settings": "ectopic expression in NIH3T3 cells; Hank's solution 4 hr or 2 μM rapamycin 3 hr"}}, "note": "Entries after “also recorded” stand apart in the source; their conditions may differ. Ends that are not written are not given here. Peptide text beside a SMILES is read from it. * marks the point of attachment. Cbz = O=C(OCc1ccccc1)*; CH2F = FC*"}
{"molecule": "RRRQRRKKRGY-G-FVNLLFLVVE (RRRQRRKKRGYGFVNLLFLVVE; not fully specified (some residues); also: retro-inverso D-amino acids) [K-α2]", "values": [{"measurement": "phosphorylation of p70S6K", "setting": "mTor kinase activity", "result": "marginal reduction"}, {"measurement": "phosphorylation of ribosomal protein S6", "setting": "mTor kinase activity", "result": "remained unaffected"}, {"measurement": "LC3-II level", "setting": "LC3-II [1]", "result": "high amount of LC3-II"}]}
{"molecule": "RRRQRRKKRGY-G-NEMCYVWHLFTQ (RRRQRRKKRGYGNEMCYVWHLFTQ; not fully specified (some residues); also: retro-inverso D-amino acids) [K-α4]", "values": [{"measurement": "phosphorylation of p70S6K", "setting": "mTor kinase activity", "result": "marginal reduction"}, {"measurement": "phosphorylation of ribosomal protein S6", "setting": "mTor kinase activity", "result": "remained unaffected"}, {"measurement": "LC3-II level", "setting": "LC3-II [1]", "result": "high amount of LC3-II"}]}
{"molecule": "5′AAGAUCCUGGACCGUGUCACC3′ [Beclin1 siRNA]", "values": [{"measurement": "endogenous Beclin1 expression", "setting": "Beclin1", "result": "significantly reduced endogenous Beclin1 expression"}, {"measurement": "rapamycin-induced autophagic death", "setting": "Beclin1; rapamycin, day 5", "result": "attenuated rapamycin-induced autophagic death"}]}
{"molecule": "RRRQRRKKRGY-G-NEMCAAAHAATQ [K-α4m]", "values": [{"measurement": "cell death (in words)", "setting": "TREX-BCBL-Vector cells [2]", "result": "no increase in autophagy nor cell death"}, {"measurement": "autophagy induction (GFP-LC3 puncta)", "setting": "TREX-BCBL-Vector cells [3]", "result": "no increase in autophagy"}]}
{"molecule": "QTFLHWVYCMEN [DED2 α4 helix]", "values": [{"measurement": "Atg3 binding", "setting": "Atg3 [4]", "result": "individually sufficient for Atg3 binding"}]}
{"molecule": "RRRQRRKKRGY-G-FVNLAAAVVE [K-α2m]", "values": [{"measurement": "cell death (in words)", "setting": "TREX-BCBL-Vector cells [2]", "result": "no increase in autophagy nor cell death"}, {"measurement": "autophagy induction (GFP-LC3 puncta)", "setting": "TREX-BCBL-Vector cells [3]", "result": "no increase in autophagy"}]}
{"molecule": "COC(=O)CC(NC(=O)C(C)NC(=O)C(NC(=O)OCc1ccccc1)C(C)C)C(=O)CF", "note": "(stereo not drawn) [zVAD, benzyloxycarbonylvalyl-alanyl-aspartic acid (O-methyl)-fluoro-methylketone] (Cbz-Val-Ala-Asp(OMe)-CH2F; configuration not given here)", "values": [{"measurement": "growth suppression and death", "setting": "BCBL1 cells", "result": "effectively induced growth suppression and death of BCBL1 cells"}]}
{"molecule": "CO[C@H]1C[C@@H]2CC[C@@H](C)[C@@](O)(O2)C(=O)C(=O)N2CCCC[C@H]2C(=O)O[C@H]([C@H](C)C[C@@H]2CC[C@@H](O)[C@H](OC)C2)CC(=O)[C@H](C)/C=C(\\C)[C@@H](O)[C@@H](OC)C(=O)[C@H](C)C[C@H](C)/C=C/C=C/C=C/1C", "note": "[rapamycin]", "values": [{"measurement": "dead cells with characteristics of autophagic death (EM)", "setting": "[5]", "result": "approximately 60%"}]}
{"molecule": "RRRQRRKKRGY-G (RRRQRRKKRGYG) [HIV-1 TAT, reference compound]", "values": [{"measurement": "cell death (in words)", "setting": "TREX-BCBL-Vector cells [2]", "result": "no increase in autophagy nor cell death"}, {"measurement": "autophagy induction (GFP-LC3 puncta)", "setting": "TREX-BCBL-Vector cells [3]", "result": "no increase in autophagy"}]}
{"molecule": "EVVLFLLNVF (also: GST fusion; UniProt F5HEZ4 20-29, looked up, fragment) [DED1 α2 helix, α2 region of KSHV vFLIP amino acids 20-29; tested as mammalian GST fusion]", "values": [{"measurement": "Atg3 binding", "setting": "Atg3 [4]", "result": "individually sufficient for Atg3 binding"}]}
{"molecule": "Flag-HVS vFLIP (other) MDLKTTVLHITDSFTEEEMYCLLFLINGCIPRNCNAVKISDLIIETLSKSTQWDICLTQCLYVLRKIELLLNLFQVTKEDVKQSFFTQLQLETHVLTLVNVNNNLTAKDEKRLCFILDQFFPRNVVASSVILCVFSNMLCEMPVLECLCQLKKCLKQIGRSDLAKTV", "values": [{"measurement": "binding result", "setting": "[6]", "result": "binds"}, {"measurement": "binding result", "setting": "[7]", "result": "binds"}]}
{"molecule": "HVS vFLIP: viral FLIP of Herpesvirus saimiri (protein, Saimiriine herpesvirus 2, viral FLIP of Herpesvirus saimiri) MDLKTTVLHITDSFTEEEMYCLLFLINGCIPRNCNAVKISDLIIETLSKSTQWDICLTQCLYVLRKIELLLNLFQVTKEDVKQSFFTQLQLETHVLTLVNVNNNLTAKDEKRLCFILDQFFPRNVVASSVILCVFSNMLCEMPVLECLCQLKKCLKQIGRSDLAKTV", "values": [{"measurement": "Atg3 regions bound (Atg3 deletion mutants)", "setting": "Atg3 [8]", "result": "Atg3 binding patterns similar to KSHV vFLIP"}, {"measurement": "Atg3 binding", "setting": "Atg3 [4]", "result": "interacted with Atg3 as efficiently as KSHV-vFLIP"}, {"measurement": "processed LC3-II", "setting": "LC3-II [9]", "result": "little or no processed LC3-II"}, {"measurement": "suppression of starvation- and rapamycin-induced autophagy (GFP-LC3 puncta)", "setting": "NIH3T3 cells", "result": "strongly suppressed starvation- and rapamycin-induced autophagy; also recorded: had anti-autophagic activity"}]}
{"molecule": "Flag-KSHV vFLIP DED2 (other, also called DED2 of KSHV vFLIP) FSPYQLTVLHVDGELCARDIRSLIFLSKDTIGSRSTPQTFLHWVYCMENLDLLGPTDVDALMSMLRSLSRVDLQRQVQTLMGLHLSGPSHSQHYRHTP", "values": [{"measurement": "binding result", "setting": "[7]", "result": "binds"}]}
{"molecule": "Flag-KSHV vFLIP DED1 (other, also called DED1 of KSHV vFLIP) MATYEVLCEVARKLGTDDREVVLFLLNVFIPQPTLAQLIGALRALKEEGRLTFPLLAECLFRAGRRDLLRDLLHLDPRFLERHLAGTMSY", "values": [{"measurement": "binding result", "setting": "[7]", "result": "binds"}]}
